Laboratory results: patent publication US9233964B2, “Sulfamide piperazine derivatives as protein tyrosine kinase inhibitors and pharmaceutical use therof” (LEO PHARMA A/S, priority 2011, dated 2016)
One block for each molecule: values may come before it.

Key:
Assay type in all cases: biochemical
JAK1 = molecular target: T1, JAK1 (Homo sapiens, UniProt P23458); assay: JAK kinase assay (HTRF, phosphorylation of synthetic peptide), JAK1; details: catalytic domain, ATP at Km (7 μM); read-out: JAK1 kinase inhibitory activity (EC50)
T1 construct: JAK1 (aa 850-1154) and TYK2 (aa 871-1187) are expressed with an N-terminally fused GST-tag; GST (N); purchased Carna Biosciences, Inc; host or cells: baculovirus expression system
In short: (§1)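 Catalytic-domain human JAK1 (GST-tagged, aa 850-1154) or His-tagged JAK2, baculovirus-expressed, phosphorylated 1 µM biotinylated TK peptide at Km ATP (JAK1 7 µM, 10 mM MgCl2, 50 nM SEB; JAK2 4 µM, 5 mM MgCl2) in pH 7.0 Hepes, 20-30 min RT. EDTA stop; overnight streptavidin-XL665/cryptate HTRF read.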

TYK2 = molecular target: T2, TYK2 (Homo sapiens, UniProt P29597); assay: JAK kinase assay (HTRF, phosphorylation of synthetic peptide), TYK2; details: catalytic domain, ATP at Km (13 μM); read-out: TYK2 kinase inhibitory activity (EC50)
T2 construct: JAK1 (aa 850-1154) and TYK2 (aa 871-1187) are expressed with an N-terminally fused GST-tag; GST (N); purchased Carna Biosciences, Inc; host or cells: baculovirus expression system
T2 sequence (P29597 871-1187): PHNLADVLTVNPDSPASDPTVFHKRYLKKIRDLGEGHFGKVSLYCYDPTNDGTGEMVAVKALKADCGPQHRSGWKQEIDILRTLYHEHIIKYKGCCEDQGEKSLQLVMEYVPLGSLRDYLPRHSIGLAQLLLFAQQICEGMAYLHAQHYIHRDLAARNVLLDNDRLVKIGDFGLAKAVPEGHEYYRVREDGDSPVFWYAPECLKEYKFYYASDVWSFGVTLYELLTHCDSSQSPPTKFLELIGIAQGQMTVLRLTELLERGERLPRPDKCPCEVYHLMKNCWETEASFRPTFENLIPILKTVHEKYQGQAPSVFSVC
In short: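 1 µM biotinylated TK peptide at Km ATP in pH 7.0 Hepes, 20-30 min RT. EDTA stop; overnight streptavidin-XL665/cryptate HTRF read.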

JAK3 = molecular target: T3, JAK3 (Homo sapiens, UniProt P52333); assay: JAK kinase assay (HTRF, phosphorylation of synthetic peptide), JAK3; details: catalytic domain, ATP at Km (2 μM); read-out: JAK3 kinase inhibitory activity (EC50)
T3 construct: All four purified enzymes contain only the catalytic domain; His (N); purchased Carna Biosciences, Inc; host or cells: baculovirus expression system

JAK2 = molecular target: T4, JAK2 (Homo sapiens, UniProt O60674); assay: JAK kinase assay (HTRF, phosphorylation of synthetic peptide), JAK2; details: catalytic domain, ATP at Km (4 μM); read-out: JAK2 kinase inhibitory activity (EC50)
T4 construct: All four purified enzymes contain only the catalytic domain; His (N); purchased Carna Biosciences, Inc; host or cells: baculovirus expression system
In short: as §1

T3 sequence (P52333 822-1111 limits assumed): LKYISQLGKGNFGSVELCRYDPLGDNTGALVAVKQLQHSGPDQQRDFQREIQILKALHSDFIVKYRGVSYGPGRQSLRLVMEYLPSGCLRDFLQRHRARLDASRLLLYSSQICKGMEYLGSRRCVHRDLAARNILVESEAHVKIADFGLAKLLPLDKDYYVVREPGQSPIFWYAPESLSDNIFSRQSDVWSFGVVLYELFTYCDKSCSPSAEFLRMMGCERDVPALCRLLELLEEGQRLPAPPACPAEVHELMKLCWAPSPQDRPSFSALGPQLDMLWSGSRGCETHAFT
T1 sequence (P23458 850-1154): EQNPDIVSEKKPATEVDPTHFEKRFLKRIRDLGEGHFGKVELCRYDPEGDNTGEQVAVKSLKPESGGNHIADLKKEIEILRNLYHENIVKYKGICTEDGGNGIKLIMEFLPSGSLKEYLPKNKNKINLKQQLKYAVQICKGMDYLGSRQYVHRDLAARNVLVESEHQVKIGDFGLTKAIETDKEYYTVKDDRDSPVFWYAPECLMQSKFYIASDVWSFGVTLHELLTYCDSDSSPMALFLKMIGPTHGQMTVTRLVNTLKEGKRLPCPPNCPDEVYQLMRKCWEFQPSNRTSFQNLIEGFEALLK
T4 sequence (O60674 849-1124 limits assumed): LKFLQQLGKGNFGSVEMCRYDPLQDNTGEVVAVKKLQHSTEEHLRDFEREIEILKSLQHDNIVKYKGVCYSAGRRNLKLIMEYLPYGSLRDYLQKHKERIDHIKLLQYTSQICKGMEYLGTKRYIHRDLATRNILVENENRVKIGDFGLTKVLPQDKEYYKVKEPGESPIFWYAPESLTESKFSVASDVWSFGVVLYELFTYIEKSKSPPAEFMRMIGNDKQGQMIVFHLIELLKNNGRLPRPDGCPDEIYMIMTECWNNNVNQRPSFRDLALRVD

EC50 (JAK1): < 100 nM | EC50 (TYK2): 100 to 500 nM | EC50 (JAK3): < 100 nM | EC50 (JAK2): < 100 nM
Structure (SMILES): NS(=O)(=O)N1CCN(c2ncnc3[nH]ccc23)CC12CC2 [Int 1]

EC50 (JAK1): < 100 nM | EC50 (TYK2): 100 to 500 nM | EC50 (JAK3): < 100 nM | EC50 (JAK2): < 100 nM
Structure (SMILES): N#CCN(CCO)S(=O)(=O)N1CCN(c2ncnc3[nH]ccc23)CC12CC2 [Example 108, N-(cyanomethyl)-N-(2-hydroxyethyl)-5-(7H-pyrrolo[2,3-d]pyrimidin-4-yl)-5,8-diazaspiro[2.5]octane-8-sulfonamide]

EC50 (JAK1): < 100 nM | EC50 (TYK2): 100 to 500 nM | EC50 (JAK3): 100 to 500 nM | EC50 (JAK2): < 100 nM
Structure (SMILES): CN(CCOc1ccccc1)S(=O)(=O)N1CCN(c2ncnc3[nH]ccc23)CC12CC2 [Example 31, 7-(7H-Pyrrolo[2,3-d]pyrimidin-4-yl)-4,7-diaza-spiro[2.5]octane-4-sulfonic acid methyl-(2-phenoxy-ethyl)-amide]

EC50 (JAK1): < 100 nM | EC50 (TYK2): 100 to 500 nM | EC50 (JAK3): 100 to 500 nM | EC50 (JAK2): < 100 nM
Structure (SMILES): CN(CC1CCOCC1)S(=O)(=O)N1CCN(c2ncnc3[nH]ccc23)CC12CC2 [Example 89, N-methyl-5-(7H-pyrrolo[2,3-d]pyrimidin-4-yl)-N-(tetrahydropyran-4-ylmethyl)-5,8-diazaspiro[2.5]octane-8-sulfonamide]

EC50 (JAK1): < 100 nM | EC50 (TYK2): > 500 nM | EC50 (JAK3): < 100 nM | EC50 (JAK2): < 100 nM
Structure (SMILES): N#CCCNS(=O)(=O)N1CCN(c2ncnc3[nH]ccc23)CC12CC2 [Int 40]

EC50 (JAK1): < 100 nM | EC50 (TYK2): < 100 nM | EC50 (JAK3): < 100 nM | EC50 (JAK2): < 100 nM
Structure (SMILES): CN(CCn1cccc1)S(=O)(=O)N1CCN(c2ncnc3[nH]ccc23)CC12CC2 [Example 26, 7-(7H-Pyrrolo[2,3-d]pyrimidin-4-yl)-4,7-diaza-spiro[2.5]octane-4-sulfonic acid methyl-(2-pyrrol-1-yl-ethyl)-amide]

The next lines start with the molecule.

Structure (SMILES): O=S(=O)(N(CCc1ccccc1)CCc1cccc(F)c1)N1CCN(c2ncnc3[nH]ccc23)CC12CC2 [Example 48, 7-(7H-Pyrrolo[2,3-d]pyrimidin-4-yl)-4,7-diaza-spiro[2.5]octane-4-sulfonic acid [2-(3-fluoro-phenyl)-ethyl]-phenethyl-amide]
EC50 (JAK1): 100 to 500 nM | EC50 (TYK2): > 500 nM | EC50 (JAK3): > 500 nM | EC50 (JAK2): 100 to 500 nM

Structure (SMILES): N#CCCCN(CCCc1ccccc1)S(=O)(=O)N1CCN(c2ncnc3[nH]ccc23)CC12CC2 [Example 57, 7-(7H-Pyrrolo[2,3-d]pyrimidin-4-yl)-4,7-diaza-spiro[2.5]octane-4-sulfonic acid (3-cyano-propyl)-(3-phenyl-propyl)-amide]
EC50 (JAK1): < 100 nM | EC50 (TYK2): > 500 nM | EC50 (JAK3): < 100 nM | EC50 (JAK2): < 100 nM

Structure (SMILES): CN(C[C@H]1CCCN1C(=O)CO)S(=O)(=O)N1CCN(c2ncnc3[nH]ccc23)CC12CC2 [Example 185, N-[[(2R)-1-(2-hydroxyacetyl)pyrrolidin-2-yl]methyl]-N-methyl-5-(7H-pyrrolo[2,3-d]pyrimidin-4-yl)-5,8-diazaspiro[2.5]octane-8-sulfonamide]
EC50 (JAK1): < 100 nM | EC50 (TYK2): < 100 nM | EC50 (JAK3): < 100 nM | EC50 (JAK2): < 100 nM

Structure (SMILES): CN(C[C@H]1CCCN1C(=O)CCO)S(=O)(=O)N1CCN(c2ncnc3[nH]ccc23)CC12CC2 [Example 190, N-[[(2R)-1-(3-hydroxypropanoyl)pyrrolidin-2-yl]methyl]-N-methyl-5-(7H-pyrrolo[2,3-d]pyrimidin-4-yl)-5,8-diazaspiro[2.5]octane-8-sulfonamide]
EC50 (JAK1): < 100 nM | EC50 (TYK2): 100 to 500 nM | EC50 (JAK3): 100 to 500 nM | EC50 (JAK2): < 100 nM

Structure (SMILES): CN(CC1CCN(S(=O)(=O)CC2CC2)C1)S(=O)(=O)N1CCN(c2ncnc3[nH]ccc23)CC12CC2 (stereo not drawn) [Example 122, N-[[1-(cyclopropylmethylsulfonyl)pyrrolidin-3-yl]methyl]-N-methyl-5-(7H-pyrrolo[2,3-d]pyrimidin-4-yl)-5,8-diazaspiro[2.5]octane-8-sulfonamide]
EC50 (JAK1): < 100 nM | EC50 (TYK2): 100 to 500 nM | EC50 (JAK3): < 100 nM | EC50 (JAK2): < 100 nM

Structure (SMILES): CN(C[C@@H]1CC(F)(F)CN1S(C)(=O)=O)S(=O)(=O)N1CCN(c2ncnc3[nH]ccc23)CC12CC2 [Example 162, N-[[(2S)-4,4-difluoro-1-methylsulfonyl-pyrrolidin-2-yl]methyl]-N-methyl-5-(7H-pyrrolo[2,3-d]pyrimidin-4-yl)-5,8-diazaspiro[2.5]octane-8-sulfonamide]
EC50 (JAK1): < 100 nM | EC50 (TYK2): < 100 nM | EC50 (JAK3): < 100 nM | EC50 (JAK2): < 100 nM

Structure (SMILES): CCC(=O)N1CCC(CN(C)S(=O)(=O)N2CCN(c3ncnc4[nH]ccc34)CC23CC3)C1 (stereo not drawn) [Example 125, N-methyl-N-[(1-propanoylpyrrolidin-3-yl)methyl]-5-(7H-pyrrolo[2,3-d]pyrimidin-4-yl)-5,8-diazaspiro[2.5]octane-8-sulfonamide]
EC50 (JAK1): < 100 nM | EC50 (TYK2): > 500 nM | EC50 (JAK3): 100 to 500 nM | EC50 (JAK2): < 100 nM

Structure (SMILES): O=S(=O)(NOCc1ccccc1)N1CCN(c2ncnc3[nH]ccc23)CC12CC2 [Int 46]
EC50 (JAK1): < 100 nM | EC50 (TYK2): 100 to 500 nM | EC50 (JAK3): 100 to 500 nM | EC50 (JAK2): < 100 nM

Structure (SMILES): CN(CC1CCN(S(=O)(=O)CCCC#N)C1)S(=O)(=O)N1CCN(c2ncnc3[nH]ccc23)CC12CC2 (stereo not drawn) [Example 121, N-[[1-(3-cyanopropylsulfonyl)pyrrolidin-3-yl]methyl]-N-methyl-5-(7H-pyrrolo[2,3-d]pyrimidin-4-yl)-5,8-diazaspiro[2.5]octane-8-sulfonamide]
EC50 (JAK1): < 100 nM | EC50 (TYK2): 100 to 500 nM | EC50 (JAK3): < 100 nM | EC50 (JAK2): < 100 nM

Structure (SMILES): O=S(=O)(N1CCCCC1)N1CCN(c2ncnc3[nH]ccc23)CC12CC2 [Example 38, 4-[4-(Piperidine-1-sulfonyl)-4,7-diaza-spiro[2.5]oct-7-yl]-7H-pyrrolo[2,3-d]pyrimidine]
EC50 (JAK1): 100 to 500 nM | EC50 (TYK2): 100 to 500 nM | EC50 (JAK3): 100 to 500 nM | EC50 (JAK2): < 100 nM

Structure (SMILES): CN(CC1CCC(C(C)(C)C)CC1)S(=O)(=O)N1CCN(c2ncnc3[nH]ccc23)CC12CC2 (stereo not drawn) [Example 84, N-[(4-tert-butylcyclohexyl)methyl]-N-methyl-5-(7H-pyrrolo[2,3-d]pyrimidin-4-yl)-5,8-diazaspiro[2.5]octane-8-sulfonamide]
EC50 (JAK1): > 500 nM | EC50 (TYK2): > 500 nM | EC50 (JAK3): > 500 nM | EC50 (JAK2): > 500 nM

Structure (SMILES): CC(=O)N(CC1CCS(=O)(=O)CC1)S(=O)(=O)N1CCN(c2ncnc3[nH]ccc23)CC12CC2 [Example 173, N-[(1,1-dioxothian-4-yl)methyl]-N-[[5-(7H-pyrrolo[2,3-d]pyrimidin-4-yl)-5,8-diazaspiro[2.5]octan-8-yl]sulfonyl]acetamide]
EC50 (JAK1): < 100 nM | EC50 (TYK2): 100 to 500 nM | EC50 (JAK3): < 100 nM | EC50 (JAK2): < 100 nM
